# Measured values: patent US20250109127A1, “METHODS OF USE OF PHENOXYPROPYLAMINE COMPOUNDS TO TREAT DEPRESSION” (Minerva Neurosciences, Inc., priority 2013, published 2025)
# “And” between values parts separate entries of the source, which are not always exact repeats. Identical values can stand only once. Counter-ions that a name gives are not always drawn.
# System: DOPAC release in the rat prefrontal cortex
# Test: Microdialysis: DOPAC release in prefrontal cortex after I.P. administration
# Type: in vivo
# Details: for DOPAC (% of respective basal), individual animal: 0.1 mg/kg I.P., c2-c9 = R#13,14,20,19,25,26,31,32; for DOPAC (% of respective basal), individual animal / DOPAC release, individual animals: hydrochloride; for DOPAC release, MEAN / DOPAC release, individual animals: 3 mg/kg IP; for DOPAC release, MEAN: n = 8; for DOPAC release, individual animals: per animal R#15,16,21,22,27,28,09,10
# Description: The aim of the study was to evaluate, using microdialysis, the effects of an intraperitoneal (I.P.) administration in rats of three different doses of SON-117 on dopamine and its metabolites, serotonin and its metabolite (5-HIAA), and norepinephrine levels in prefrontal cortex.
# Thirty-two adult male Wistar rats were used for the whole study (4 groups of eight animals planned for the study, Table 1).
# Surgery was performed on rats weighing about 300 g at the beginning of the experiments. Rats were anaesthetized with Ketamine (50 mg/kg) & Xylazine (15 mg/kg) by intramuscular administration. The animals were placed in a stereotaxic apparatus in the flat-skull position at a constant setting of −3.3 mm between ear bars and the incisor bar. The animals were treated with a local anesthesic (xylocaine 1%, Astra Zeneca) and an analgesic (Temgesic, from Schering Plough, 0.05 mg/kg, s.c.). A rostrocaudal midline incision was made with a lancet to expose the dorsal skull surface. The “stereotaxic zero” was defined by the Bregma in accordance with Paxinos and Watson's atlas (1986). A hole was drilled in the skull with a drill and the meninges were pierced with a sterile needle to implant a CMA12 guide cannula which later received the dialysis probe.
# Coordinates used for implanting guide cannula in prefrontal cortex from Bregma were anteroposterior 3.7 mm, mediolateral 0.8 mm, and dorsoventral −2 mm (top of the probe was at −5 mm). The guide cannula was fixed to the skull with two stainless steel screws (1.88 mm outside diameter) anchored. An application of dental cement was added. A plastic collar allowed each animal to be tethered to a Swivel assembly of the CMA 120 awake animal system. Following surgery, rats were kept in individual cages and allowed to recover for a minimum of 3-5 days before the experimentation. The rats were handled and put in plastic bowl for 10 min at least every day to habituate the animals to their new environment for the dialysis. An I.P. administration with saline was also performed every day.
# Dialysis probes (CMA12/3 mm, membrane, 20 kD cut-off, Carnegie Medicine, Stockholm, Sweden), were carefully washed before inserting into the guide cannula. The wash was performed with the artificial cerebrospinal fluid (aCSF) medium (NaCl 147 mM, KCl 2.7 mM, CaCl2 1.2 mM, MgCl2 0.85 mM) at room temperature. The dialysis system was then equilibrated at 20° C. at a perfusion rate of 1 μl/min with a Carnegie pump (CMA100). All catheters (FEP tubing, internal volume of 1.2 μl/10 cm, and tubing adaptors) used for microdialysis were treated in the same conditions.
# The probes duly prepared were inserted into the guide cannula and the CMA120 Swivel assembly secured to the animal using a plastic collar. Flow through the dialysis probe with aCSF was maintained at a rate of 1 μl/min during the whole experimentation. The first four fractions (corresponding to 2 hours) were discarded to avoid the effects of parenchymal disturbance and to ensure that an approximate steady-state level was reached. Fractions were then collected over a period of 8.5 h during which time the animals remained quiet. The dialysates were automatically collected with an autosampler (microfraction collector CMA 140, Carnegie Medicin) and stored at −80° C. until analysis. […] Perfusion was then maintained for 7 hours with aCSF. The dialysates (30 μl) were collected into 300 μl vials, transferred into dry ice and then kept frozen (−80° C.) until analysis. Frozen samples were shipped to a partner for analysis. At the end of the microdialysis study, a PBS with colored ink was perfused through the probe in order to visualize the dialyzed area.
# Catecholamine assay: Concentrations of dopamine, DOPAC, HVA, 5-HIAA, 5-HT, and norepinephrin were determined for each sample by HPLC coupled with electrochemical detection.
structure (smiles),measurement,setting,value
"Cc1nnc(-c2cc3c(OC[C@@H](O)CN4CCC(c5ccc(Cl)c(Cl)c5)CC4)cccc3o2)o1 [SON-117, (S)-1-(4-(3,4-dichlorophenyl)piperidino)-3-(2-(5-methyl-1,3,4-oxadiazol-2-yl)benzo(b)furan-4-yloxy)-2-propanol hydrochloride]","DOPAC (% of respective basal), individual animal",T30-T1 h,90.11 % of respective basal and 105.88 % of respective basal and 110.45 % of respective basal and 113.21 % of respective basal and 95.59 % of respective basal and 110.39 % of respective basal and 128.2 % of respective basal and 82.35 % of respective basal
same,"DOPAC (% of respective basal), individual animal",T1 h 30-T2 h,101.64 % of respective basal and 109.71 % of respective basal and 83.87 % of respective basal and 449.73 % of respective basal and 128.96 % of respective basal and 72.88 % of respective basal and 153.26 % of respective basal and 56.49 % of respective basal
same,"DOPAC (% of respective basal), individual animal",T1 h-T1 h 30,79.47 % of respective basal and 158.61 % of respective basal and 92.14 % of respective basal and 126.98 % of respective basal and 119.92 % of respective basal and 119.37 % of respective basal and 135.5 % of respective basal and 66.42 % of respective basal
same,"DOPAC (% of respective basal), individual animal",T2 h 30-T3 h,60.75 % of respective basal and 112.82 % of respective basal and 69.17 % of respective basal and 79.31 % of respective basal and 152.5 % of respective basal and 113.62 % of respective basal and 142.16 % of respective basal and 23.28 % of respective basal
same,"DOPAC (% of respective basal), individual animal",T2 h-T2 h 30,176.59 % of respective basal and 43.90 % of respective basal and 80.18 % of respective basal and 123.61 % of respective basal and 132.53 % of respective basal and 78.83 % of respective basal and 142.03 % of respective basal and 39.56 % of respective basal
same,"DOPAC (% of respective basal), individual animal",T3 h 30-T4 h,53.09 % of respective basal and 116.09 % of respective basal and 68.59 % of respective basal and 73.49 % of respective basal and 180.72 % of respective basal and 107.13 % of respective basal and 128.91 % of respective basal and 40.67 % of respective basal
same,"DOPAC (% of respective basal), individual animal",T3 h-T3 h 30,80.45 % of respective basal and 87.7 % of respective basal and 65.69 % of respective basal and 75.20 % of respective basal and 134.32 % of respective basal and 93.13 % of respective basal and 140.15 % of respective basal and 50.88 % of respective basal
same,"DOPAC (% of respective basal), individual animal",T4 h 30-T5 h,304.57 % of respective basal and 95.87 % of respective basal and 47.53 % of respective basal and 20.13 % of respective basal and 163.90 % of respective basal and 118.96 % of respective basal and 157.11 % of respective basal and 54.52 % of respective basal
same,"DOPAC (% of respective basal), individual animal",T4 h-T4 h 30,345.4 % of respective basal and 109.04 % of respective basal and 79.96 % of respective basal and 110.35 % of respective basal and 164.47 % of respective basal and 110.81 % of respective basal and 148.54 % of respective basal and 71.60 % of respective basal
same,"DOPAC (% of respective basal), individual animal",T5 h 30-T6 h,316.35 % of respective basal and 107.67 % of respective basal and 58.65 % of respective basal and 83.02 % of respective basal and 133.93 % of respective basal and 99.81 % of respective basal and 135.88 % of respective basal and 46.79 % of respective basal
same,"DOPAC (% of respective basal), individual animal",T5 h-T5 h 30,342.56 % of respective basal and 121.60 % of respective basal and 61.68 % of respective basal and 79.4 % of respective basal and 139.09 % of respective basal and 96.46 % of respective basal and 144.84 % of respective basal and 50.64 % of respective basal
same,"DOPAC (% of respective basal), individual animal",T6 h 30-T7 h,344.74 % of respective basal and 120.8 % of respective basal and 139.44 % of respective basal and 80.52 % of respective basal
same,"DOPAC (% of respective basal), individual animal",T6 h-T6 h 30,362.18 % of respective basal and 142.01 % of respective basal and 23.55 % of respective basal and 82.92 % of respective basal and 136.09 % of respective basal and 101.05 % of respective basal and 125.76 % of respective basal and 48.95 % of respective basal
same,"DOPAC release, MEAN",T0-T30 min,87.96 % of respective basal
same,"DOPAC release, MEAN",T30-T1 h,90.03 % of respective basal
same,"DOPAC release, individual animals",T30-T1 h,101.17 % of respective basal and 98.27 % of respective basal and 70.16 % of respective basal and 93.38 % of respective basal and 83.10 % of respective basal and 96.90 % of respective basal and 90.68 % of respective basal and 86.57 % of respective basal
same,"DOPAC release, MEAN",T1 h 30-T2 h,109.73 % of respective basal
same,"DOPAC release, individual animals",T1 h 30-T2 h,148.73 % of respective basal and 196.92 % of respective basal and 78.99 % of respective basal and 114.35 % of respective basal and 65.05 % of respective basal and 98.86 % of respective basal and 85.04 % of respective basal and 87.02 % of respective basal
same,"DOPAC release, MEAN",T1 h-T1 h 30,107.74 % of respective basal
same,"DOPAC release, individual animals",T1 h-T1 h 30,183.03 % of respective basal and 117.43 % of respective basal and 106.09 % of respective basal and 101.67 % of respective basal and 88.00 % of respective basal and 90.78 % of respective basal and 85.51 % of respective basal and 89.44 % of respective basal
same,"DOPAC release, MEAN",T2 h 30-T3 h,92.73 % of respective basal
same,"DOPAC release, individual animals",T2 h 30-T3 h,122.00 % of respective basal and 99.60 % of respective basal and 70.87 % of respective basal and 93.90 % of respective basal and 65.07 % of respective basal and 108.76 % of respective basal and 94.51 % of respective basal and 87.10 % of respective basal
same,"DOPAC release, MEAN",T2 h-T2 h 30,95.46 % of respective basal
same,"DOPAC release, individual animals",T2 h-T2 h 30,111.98 % of respective basal and 121.35 % of respective basal and 63.44 % of respective basal and 89.04 % of respective basal and 75.53 % of respective basal and 92.91 % of respective basal and 122.88 % of respective basal and 86.52 % of respective basal
same,"DOPAC release, MEAN",T3 h 30-T4 h,94.20 % of respective basal
same,"DOPAC release, individual animals",T3 h 30-T4 h,111.27 % of respective basal and 111.84 % of respective basal and 80.10 % of respective basal and 101.37 % of respective basal and 69.94 % of respective basal and 101.03 % of respective basal and 82.44 % of respective basal and 95.58 % of respective basal
same,"DOPAC release, MEAN",T3 h-T3 h 30,102.63 % of respective basal
same,"DOPAC release, individual animals",T3 h-T3 h 30,114.26 % of respective basal and 115.76 % of respective basal and 98.98 % of respective basal and 103.32 % of respective basal and 65.78 % of respective basal and 96.52 % of respective basal and 80.53 % of respective basal and 145.86 % of respective basal
same,"DOPAC release, MEAN",T4 h 30-T5 h,90.86 % of respective basal
same,"DOPAC release, individual animals",T4 h 30-T5 h,99.05 % of respective basal and 111.45 % of respective basal and 86.88 % of respective basal and 84.18 % of respective basal and 65.99 % of respective basal and 114.07 % of respective basal and 88.90 % of respective basal and 76.33 % of respective basal
same,"DOPAC release, MEAN",T4 h-T4 h 30,97.50 % of respective basal
same,"DOPAC release, individual animals",T4 h-T4 h 30,114.70 % of respective basal and 111.85 % of respective basal and 76.78 % of respective basal and 121.97 % of respective basal and 69.65 % of respective basal and 96.91 % of respective basal and 88.65 % of respective basal and 99.52 % of respective basal
same,"DOPAC release, MEAN",T5 h 30-T6 h,93.52 % of respective basal
same,"DOPAC release, individual animals",T5 h 30-T6 h,100.08 % of respective basal and 108.82 % of respective basal and 106.21 % of respective basal and 79.12 % of respective basal and 64.79 % of respective basal and 94.19 % of respective basal and 96.33 % of respective basal and 96.49 % of respective basal
same,"DOPAC release, MEAN",T5 h-T5 h 30,105.66 % of respective basal
same,"DOPAC release, individual animals",T5 h-T5 h 30,96.11 % of respective basal and 118.05 % of respective basal and 106.17 % of respective basal and 90.70 % of respective basal and 68.08 % of respective basal and 136.44 % of respective basal and 128.39 % of respective basal and 101.33 % of respective basal
same,"DOPAC release, MEAN",T6 h 30-T7 h,101.08 % of respective basal
same,"DOPAC release, individual animals",T6 h 30-T7 h,100.91 % of respective basal and 128.07 % of respective basal and 103.29 % of respective basal and 98.33 % of respective basal and 67.98 % of respective basal
same,"DOPAC release, MEAN",T6 h-T6 h 30,97.93 % of respective basal
same,"DOPAC release, individual animals",T6 h-T6 h 30,89.69 % of respective basal and 125.97 % of respective basal and 108.08 % of respective basal and 99.61 % of respective basal and 70.30 % of respective basal and 104.34 % of respective basal and 87.50 % of respective basal
same,"DOPAC release, MEAN",T-30 min-T0 (before administration),94.88 % of respective basal
